Legend:
[1] = system: M14; test: Cytotoxicity against human M14 cells after 48 hrs by sulforhodamine B assay; format: functional; details: M14, 48 h
[2] = system: ACHN; test: Cytotoxicity against human ACHN cells after 48 hrs by sulforhodamine B assay; format: functional
[3] = system: CCRF-CEM; test: Cytotoxicity against human CCRF-CEM cells after 48 hrs by sulforhodamine B assay; format: functional
[4] = system: HOP-92; test: Cytotoxicity against human HOP92 cells after 48 hrs by sulforhodamine B assay; format: functional; details: HOP-92, 48 h
[5] = system: RXF 393; test: Cytotoxicity against human RXF393 cells after 48 hrs by sulforhodamine B assay; format: functional; details: RXF 393, 48 h
[6] = system: OVCAR-3; test: Cytotoxicity against human OVCAR3 cells after 48 hrs by sulforhodamine B assay; format: functional; details: OVCAR-3, 48 h
[7] = system: HCT-116; test: Cytotoxicity against human HCT116 cells after 48 hrs by sulforhodamine B assay; format: functional; details: HCT-116, 48 h
[8] = system: HCT-15; test: Cytotoxicity against human HCT15 cells after 48 hrs by sulforhodamine B assay; format: functional; details: HCT-15, 48 h
[9] = system: SF-268; test: Cytotoxicity against human SF268 cells after 48 hrs by sulforhodamine B assay; format: functional; details: SF-268, 48 h
[10] = system: NCI-H460; test: Cytotoxicity against human NCI-H460 cells after 48 hrs by sulforhodamine B assay; format: functional; details: NCI-H460, 48 h
[11] = system: SF-295; test: Cytotoxicity against human SF295 cells after 48 hrs by sulforhodamine B assay; format: functional; details: SF-295, 48 h
[12] = system: U-251; test: Cytotoxicity against human U251 cells after 48 hrs by sulforhodamine B assay; format: functional; details: U-251, 48 h
[13] = system: CAKI-1; test: Cytotoxicity against human CAKI-1 cells after 48 hrs by sulforhodamine B assay; format: functional; details: CAKI-1, 48 h
[14] = system: LOX IMVI; test: Cytotoxicity against human LOXIMVI cells after 48 hrs by sulforhodamine B assay; format: functional
[15] = system: SR; test: Cytotoxicity against human SR cells after 48 hrs by sulforhodamine B assay; format: functional
[16] = Cytotoxicity against human EKVX cells after 48 hrs by sulforhodamine B assay; format: functional
[17] = system: OVCAR-8; test: Cytotoxicity against human OVCAR8 cells after 48 hrs by sulforhodamine B assay; format: functional; details: OVCAR-8, 48 h
[18] = system: UACC-62; test: Cytotoxicity against human UACC62 cells after 48 hrs by sulforhodamine B assay; format: functional; details: UACC-62, 48 h
[19] = system: T47D; test: Cytotoxicity against human T47D cells after 48 hrs by sulforhodamine B assay; format: functional
[20] = system: HOP-62; test: Cytotoxicity against human HOP62 cells after 48 hrs by sulforhodamine B assay; format: functional; details: HOP-62, 48 h
[21] = system: TK-10; test: Cytotoxicity against human TK10 cells after 48 hrs by sulforhodamine B assay; format: functional; details: TK-10, 48 h
[22] = system: BT-549; test: Cytotoxicity against human BT549 cells after 48 hrs by sulforhodamine B assay; format: functional; details: BT-549, 48 h
[23] = system: IGROV-1; test: Cytotoxicity against human IGROV1 cells after 48 hrs by sulforhodamine B assay; format: functional; details: IGROV-1, 48 h
[24] = system: DU-145; test: Cytotoxicity against human DU145 cells after 48 hrs by sulforhodamine B assay; format: functional; details: DU-145, 48 h
[25] = system: KM12; test: Cytotoxicity against human KM12 cells after 48 hrs by sulforhodamine B assay; format: functional; details: KM12, 48 h
[26] = system: NCI-H322M; test: Cytotoxicity against human NCI-H322M cells after 48 hrs by sulforhodamine B assay; format: functional
[27] = system: OVCAR-4; test: Cytotoxicity against human OVCAR4 cells after 48 hrs by sulforhodamine B assay; format: functional; details: OVCAR-4, 48 h
[28] = system: MOLT-4; test: Cytotoxicity against human MOLT4 cells after 48 hrs by sulforhodamine B assay; format: functional; details: MOLT-4, 48 h
[29] = system: RPMI-8226; test: Cytotoxicity against human RPMI8226 cells after 48 hrs by sulforhodamine B assay; format: functional; details: RPMI-8226, 48 h
[30] = system: NCI/ADR-RES; test: Cytotoxicity against human NCI/ADR-RES cells after 48 hrs by sulforhodamine B assay; format: functional
[31] = system: HL-60(TB); test: Cytotoxicity against human HL-60(TB) cells after 48 hrs by sulforhodamine B assay; format: functional; details: HL-60, 48 h
[32] = system: PC-3; test: Cytotoxicity against human PC3 cells after 48 hrs by sulforhodamine B assay; format: functional; details: PC-3, 48 h
[33] = system: SNB-75; test: Cytotoxicity against human SNB75 cells after 48 hrs by sulforhodamine B assay; format: functional; details: SNB-75, 48 h
[34] = system: Mus musculus; test: Toxicity in athymic nude mouse assessed as survival at 400 mg/kg, ip measured after 2 weeks; format: organism-based; parameters: dose 400 mg/kg, route intraperitoneal; details: in vivo, 336 h

## O=C(N/N=C/c1ccccc1O)c1ccccc1Nc1ccnc(C(F)(F)F)c1
[1]
  GI50: 0.501 µM
[2]
  GI50: 0.398 µM
[3]
  GI50: 0.2 µM
[4]
  GI50: 0.158 µM
[5]
  GI50: 0.0631 µM
[6]
  GI50: 0.316 µM
[7]
  GI50: 0.398 µM
[8]
  GI50: 0.2 µM
[9]
  GI50: 0.631 µM
[10]
  GI50: 0.251 µM
[11]
  GI50: 0.501 µM
[12]
  GI50: 0.501 µM
[13]
  GI50: 0.316 µM
[14]
  GI50: 0.316 µM
[15]
  GI50: 0.0501 µM
[16]
  GI50: 0.316 µM
[17]
  GI50: 0.501 µM
[18]
  GI50: 0.398 µM
[19]
  GI50: 1.26 µM
[20]
  GI50: 0.398 µM
[21]
  GI50: 0.501 µM
[22]
  GI50: 0.631 µM
[23]
  GI50: 0.0158 µM
[24]
  GI50: 0.631 µM
[25]
  GI50: 0.398 µM
[26]
  GI50: 0.398 µM
[27]
  GI50: 0.251 µM
[28]
  GI50: 0.316 µM
[29]
  GI50: 0.2 µM
[30]
  GI50: 0.398 µM
[31]
  GI50: 0.398 µM
[32]
  GI50: 0.126 µM
[33]
  GI50: 0.316 µM
[34]
  Activity: Non-toxic

## COc1cccc(/C=N/NC(=O)c2ccccc2Nc2ccnc(C(F)(F)F)c2)c1O
[1]
  GI50: 0.398 µM
[2]
  GI50: 0.1 µM
[3]
  GI50: 0.251 µM
[4]
  GI50: 0.158 µM
[5]
  GI50: 0.2 µM
[6]
  GI50: 0.1 µM
[7]
  GI50: 0.316 µM
[8]
  GI50: 0.158 µM
[9]
  GI50: 0.631 µM
[10]
  GI50: 0.2 µM
[11]
  GI50: 0.398 µM
[12]
  GI50: 0.398 µM
[13]
  GI50: 0.2 µM
[14]
  GI50: 0.2 µM
[15]
  GI50: 0.0501 µM
[16]
  GI50: 0.251 µM
[17]
  GI50: 0.251 µM
[18]
  GI50: 0.316 µM
[19]
  GI50: 0.501 µM
[20]
  GI50: 0.398 µM
[21]
  GI50: 0.316 µM
[22]
  GI50: 0.398 µM
[23]
  GI50: 0.0251 µM
[24]
  GI50: 0.794 µM
[25]
  GI50: 0.398 µM
[26]
  GI50: 0.251 µM
[27]
  GI50: 0.126 µM
[28]
  GI50: 0.01 µM
[29]
  GI50: 0.158 µM
[30]
  GI50: 0.501 µM
[31]
  GI50: 0.2 µM
[32]
  GI50: 0.2 µM
[33]
  GI50: 0.251 µM
[34]
  Activity: Non-toxic

## CCOc1cccc(/C=N/NC(=O)c2ccccc2Nc2ccnc(C(F)(F)F)c2)c1O
[1]
  GI50: 0.631 µM
[2]
  GI50: 0.316 µM
[3]
  GI50: 0.251 µM
[4]
  GI50: 0.158 µM
[5]
  GI50: 12.6 µM
[6]
  GI50: 0.316 µM
[7]
  GI50: 0.316 µM
[8]
  GI50: 0.251 µM
[9]
  GI50: 0.794 µM
[10]
  GI50: 0.251 µM
[11]
  GI50: 0.501 µM
[12]
  GI50: 0.398 µM
[13]
  GI50: 0.251 µM
[14]
  GI50: 0.2 µM
[15]
  GI50: 0.0631 µM
[16]
  GI50: 0.251 µM
[17]
  GI50: 0.501 µM
[18]
  GI50: 0.501 µM
[19]
  GI50: 0.794 µM
[20]
  GI50: 0.501 µM
[21]
  GI50: 0.631 µM
[22]
  GI50: 0.398 µM
[23]
  GI50: 0.0398 µM
[24]
  GI50: 0.794 µM
[25]
  GI50: 0.501 µM
[26]
  GI50: 0.398 µM
[27]
  GI50: 0.251 µM
[28]
  GI50: 0.126 µM
[29]
  GI50: 0.251 µM
[30]
  GI50: 0.631 µM
[31]
  GI50: 0.251 µM
[32]
  GI50: 0.2 µM
[33]
  GI50: 0.398 µM
[34]
  Activity: Non-toxic

## CCOc1cccc(/C=N/NC(=O)c2cccc(Nc3ccnc(C(F)(F)F)c3)c2)c1O
[1]
  GI50: 1.26 µM
[2]
  GI50: 1 µM
[3]
  GI50: 0.251 µM
[4]
  GI50: 3.16 µM
[5]
  GI50: 1 µM
[6]
  GI50: 0.2 µM
[7]
  GI50: 0.398 µM
[8]
  GI50: 2 µM
[9]
  GI50: 0.631 µM
[10]
  GI50: 1 µM
[11]
  GI50: 2 µM
[12]
  GI50: 1.26 µM
[13]
  GI50: 1 µM
[14]
  GI50: 0.631 µM
[15]
  GI50: 0.158 µM
[16]
  GI50: 0.794 µM
[17]
  GI50: 0.794 µM
[18]
  GI50: 0.631 µM
[19]
  GI50: 0.631 µM
[20]
  GI50: 0.794 µM
[21]
  GI50: 1.26 µM
[22]
  GI50: 1.58 µM
[23]
  GI50: 0.794 µM
[24]
  GI50: 0.631 µM
[25]
  GI50: 1.26 µM
[26]
  GI50: 0.631 µM
[27]
  GI50: 0.631 µM
[28]
  GI50: 0.316 µM
[29]
  GI50: 2 µM
[30]
  GI50: 3.16 µM
[31]
  GI50: 0.251 µM
[32]
  GI50: 1 µM
[33]
  GI50: 7.94 µM

## O=C(N/N=C/c1ccc(O)cc1O)c1cccc(Nc2ccnc(C(F)(F)F)c2)c1
[1]
  GI50: 0.631 µM
[2]
  GI50: 2 µM
[3]
  GI50: 0.398 µM
[4]
  GI50: 1.58 µM
[5]
  GI50: 1.26 µM
[6]
  GI50: 0.316 µM
[7]
  GI50: 0.501 µM
[8]
  GI50: 3.16 µM
[9]
  GI50: 0.631 µM
[10]
  GI50: 3.16 µM
[11]
  GI50: 2 µM
[12]
  GI50: 0.794 µM
[13]
  GI50: 3.16 µM
[14]
  GI50: 0.501 µM
[15]
  GI50: 0.398 µM
[16]
  GI50: 1 µM
[17]
  GI50: 0.631 µM
[18]
  GI50: 0.398 µM
[19]
  GI50: 0.501 µM
[20]
  GI50: 0.501 µM
[21]
  GI50: 2.51 µM
[22]
  GI50: 0.631 µM
[23]
  GI50: 1.26 µM
[24]
  GI50: 1.58 µM
[25]
  GI50: 2.51 µM
[26]
  GI50: 0.316 µM
[27]
  GI50: 0.501 µM
[28]
  GI50: 0.631 µM
[29]
  GI50: 3.98 µM
[30]
  GI50: 3.98 µM
[31]
  GI50: 0.501 µM
[32]
  GI50: 1.26 µM
[33]
  GI50: 6.31 µM

Source: ChEMBL document CHEMBL2440080, “Synthesis and biological evaluation of novel acylhydrazone derivatives as potential antitumor agents” (Bioorg Med Chem, 2013)
